Data taken from article PMC8206213, “An L-2-hydroxyglutarate biosensor based on specific transcriptional regulator LhgR” (Nature Communications, 2021).
Where “and” joins values, the source holds several entries; their conditions need not be identical. Identical values can stand only once.

Key:
[1] = tested on: LHGFR0N7C expressed in E. coli BL21(DE3); test: Specificity of LHGFR0N7C expressed in E. coli BL21(DE3), 1 mM compounds; format: cell-based; settings: Supplementary Fig. 13c
Experimental: (§1) To characterize the sensitivity and specificity of LHGFR expressed in E. coli BL21(DE3), 90 μL cell suspensions following 8 h carbon starvation were mixed with 10 μL increasing concentrations of L-2-HG or other compounds, and then added into a black 96-well plate (total 100 μL/per well), the fluorescence intensities were determined using an EnSight microplate reader (PerkinElmer, USA) and the following instrument settings: excitation at 430 nm, emission at 485 nm (mTFP) and 528 nm (Venus), time intervals of 5 min, the temperature at 37 °C, and shake at 180 rpm.

LHGFR0N3C [2] = test: Influence of other compounds on the response of purified LHGFR0N3C to L-2-HG; format: binding, Pseudomonas putida W619
Experimental: (§2) Purified L-2-HG biosensors and different compounds were diluted by 50 mM Tris-HCl buffer (pH 7.4), mixed together in a black 96-well plate at a volume ratio of 3:1, and the fluorescence intensities were measured using an EnSight microplate reader (PerkinElmer, USA) with excitation at 430 nm, emission at 485 nm (mTFP) and 528 nm (Venus). […] The [L-2-HG], Kd, and p refer to the L-2-HG concentration, apparent dissociation constant, and Hill slope, respectively. Emission spectra were recorded at 430 nm excitation, in steps of 2 nm. Excitation spectra were recorded using emission at 550 nm, excitation from 380 to 535 nm in steps of 2 nm.

LHGFR0N3C [3] = test: Specificity of purified LHGFR0N3C, emission ratio with 240 μM compounds; format: binding, Pseudomonas putida W619; settings: 240 μM compound
Experimental: as §2

[4] = tested on: LHGFR3N7C expressed in E. coli BL21(DE3); test: Control biosensor LHGFR3N7C expressed in E. coli, response to added compounds; format: cell-based; settings: Supplementary Fig. 14a
Experimental: as §1

LHGFR0N7C = test: Specificity of purified LHGFR0N7C, emission ratio with 240 μM compounds; format: binding, Pseudomonas putida W619; settings: 240 μM compound
Experimental: as §2

For `O=C(O)CC[C@H](O)C(=O)O` [L-2-HG, L-2-Hydroxyglutarate], the “normalized emission ratio of biosensor expressed in E. coli” value (shortened to “normalized emission ratio of biosensor”) ([1]; time 80 min) was 1.412 and 1.416 and 1.423, the “normalized emission ratio of biosensor” value ([1]; time 85 min) was 1.389 and 1.408 and 1.4341 and the “normalized emission ratio of biosensor” value ([1]; time 90 min) was 1.404 and 1.406 and 1.429. The “Emission ratio of 528/485” value (LHGFR0N3C [2]; L-2-HG concentration 0.01, in the absence of 2-KG, Suppl. Fig. 9g) was 1.4026 and 1.407 and 1.399, the “Emission ratio of 528/485” value (LHGFR0N3C [2]; L-2-HG concentration 0.01, in the absence of D-2-HG, Suppl. Fig. 9e) was 1.361 and 1.439 and 1.415 and the “Emission ratio of 528/485” value (LHGFR0N3C [2]; L-2-HG concentration 0.01, in the presence of 2-KG, Suppl. Fig. 9g) was 1.363. For the same molecule, the “Emission ratio of 528/485” value (LHGFR0N3C [2]; L-2-HG concentration 0.01, in the presence of D-2-HG, Suppl. Fig. 9e) was 1.406 and 1.467 and 1.446, the “Emission ratio of 528/485” value (LHGFR0N3C [2]; L-2-HG concentration 0.1, in the absence of D-2-HG, Suppl. Fig. 9e) was 1.367 and 1.431 and 1.424 and the “Emission ratio of 528/485” value (LHGFR0N3C [2]; L-2-HG concentration 0.1, in the presence of D-2-HG, Suppl. Fig. 9e) was 1.407 and 1.464 and 1.416. For the same molecule, the “Emission ratio of 528/485” value (LHGFR0N3C [2]; L-2-HG concentration 0.2, in the absence of D-2-HG, Suppl. Fig. 9e) was 1.3539 and 1.456 and 1.407, the “Emission ratio of 528/485” value (LHGFR0N3C [2]; L-2-HG concentration 0.2, in the presence of D-2-HG, Suppl. Fig. 9e) was 1.417 and 1.4607 and 1.422 and the “Emission ratio of 528/485” value (LHGFR0N3C [2]; L-2-HG concentration 1, in the absence of D-2-HG, Suppl. Fig. 9e) was 1.3919 and 1.421 and 1.443. For the same molecule, the “Emission ratio of 528/485” value (LHGFR0N3C [2]; L-2-HG concentration 1, in the presence of D-2-HG, Suppl. Fig. 9e) was 1.445 and 1.477 and 1.4328, the “Emission ratio of 528/485” value (LHGFR0N3C [2]; L-2-HG concentration 2, in the absence of D-2-HG, Suppl. Fig. 9e) was 1.397 and 1.479 and 1.464 and the “Emission ratio of 528/485” value (LHGFR0N3C [2]; L-2-HG concentration 2, in the presence of D-2-HG, Suppl. Fig. 9e) was 1.472 and 1.492 and 1.494. The “Emission ratio of 528/485” value (LHGFR0N3C [2]; L-2-HG concentration 10, in the absence of D-2-HG, Suppl. Fig. 9e) was 1.597 and 1.623 and 1.644, the “Emission ratio of 528/485” value (LHGFR0N3C [2]; L-2-HG concentration 10, in the presence of D-2-HG, Suppl. Fig. 9e) was 1.611 and 1.627 and 1.593 and the “Emission ratio of 528/485” value (LHGFR0N3C [2]; L-2-HG concentration 20, in the absence of 2-KG, Suppl. Fig. 9g) was 1.741 and 1.744 and 1.757. For the same molecule, the “Emission ratio of 528/485” value (LHGFR0N3C [2]; L-2-HG concentration 20, in the absence of D-2-HG, Suppl. Fig. 9e) was 1.77 and 1.748 and 1.778, the “Emission ratio of 528/485” value (LHGFR0N3C [2]; L-2-HG concentration 20, in the presence of 2-KG, Suppl. Fig. 9g) was 1.682 and 1.691 and 1.6943 and the “Emission ratio of 528/485” value (LHGFR0N3C [2]; L-2-HG concentration 20, in the presence of D-2-HG, Suppl. Fig. 9e) was 1.748 and 1.775 and 1.796. The “Emission ratio of 528/485” value (LHGFR0N3C [2]; L-2-HG concentration 100, in the absence of 2-KG, Suppl. Fig. 9g) was 1.995 and 2.046 and 2.033, the “Emission ratio of 528/485” value (LHGFR0N3C [2]; L-2-HG concentration 100, in the absence of D-2-HG, Suppl. Fig. 9e) was 1.9389 and 1.983 and 2.002 and the “Emission ratio of 528/485” value (LHGFR0N3C [2]; L-2-HG concentration 100, in the presence of 2-KG, Suppl. Fig. 9g) was 1.979 and 1.983 and 2.015. The “Emission ratio of 528/485” value (LHGFR0N3C [2]; L-2-HG concentration 100, in the presence of D-2-HG, Suppl. Fig. 9e) was 2.01 and 1.942 and 2.017, the “Emission ratio of 528/485” value (LHGFR0N3C [2]; L-2-HG concentration 200, in the absence of 2-KG, Suppl. Fig. 9g) was 2.097 and 2.071 and 2.086 and the “Emission ratio of 528/485” value (LHGFR0N3C [2]; L-2-HG concentration 200, in the absence of D-2-HG, Suppl. Fig. 9e) was 2.026 and 2.0171 and 2.117. For the same molecule, the “Emission ratio of 528/485” value (LHGFR0N3C [2]; L-2-HG concentration 200, in the presence of 2-KG, Suppl. Fig. 9g) was 2.058 and 2.06 and 2.089, the “Emission ratio of 528/485” value (LHGFR0N3C [2]; L-2-HG concentration 200, in the presence of D-2-HG, Suppl. Fig. 9e) was 2.039 and 1.978 and 2.053 and the “Emission ratio of 528/485” value (LHGFR0N3C [2]; L-2-HG concentration 1000, in the absence of 2-KG, Suppl. Fig. 9g) was 2.1941 and 2.174 and 2.177. For the same molecule, the “Emission ratio of 528/485” value (LHGFR0N3C [2]; L-2-HG concentration 1000, in the absence of D-2-HG, Suppl. Fig. 9e) was 2.163 and 2.184 and 2.199, the “Emission ratio of 528/485” value (LHGFR0N3C [2]; L-2-HG concentration 1000, in the presence of 2-KG, Suppl. Fig. 9g) was 2.1301 and 2.167 and 2.163 and the “Emission ratio of 528/485” value (LHGFR0N3C [2]; L-2-HG concentration 1000, in the presence of D-2-HG, Suppl. Fig. 9e) was 2.202 and 2.174 and 2.19. The “Emission ratio of 528/485” value (LHGFR0N3C [2]; L-2-HG concentration 2000, in the absence of 2-KG, Suppl. Fig. 9g) was 2.149 and 2.166 and 2.182, the “Emission ratio of 528/485” value (LHGFR0N3C [2]; L-2-HG concentration 2000, in the absence of D-2-HG, Suppl. Fig. 9e) was 2.176 and 2.24 and 2.201 and the “Emission ratio of 528/485” value (LHGFR0N3C [2]; L-2-HG concentration 2000, in the presence of 2-KG, Suppl. Fig. 9g) was 2.154 and 2.1518 and 2.167. The “Emission ratio of 528/485” value (LHGFR0N3C [2]; L-2-HG concentration 2000, in the presence of D-2-HG, Suppl. Fig. 9e) was 2.195 and 2.175 and 2.2011, the Emission ratio (LHGFR0N3C [2]; Suppl. Fig. 9a, L-2-HG alone or with the compound, three replicates) was 2.053 and 2.0953 and 2.06 and the Emission ratio (LHGFR0N3C [3]) was 2.0582 and 2.052 and 2.059. The “normalized emission ratio of control biosensor expressed in E. coli” value ([4]; time 0 min) was 1.025 and 0.9958 and 0.9991 and 1.005, the “normalized emission ratio of control biosensor expressed in E. coli” value ([4]; time 5 min) was 1.029 and 0.9977 and 0.9908 and 1.001 and the “normalized emission ratio of control biosensor expressed in E. coli” value ([4]; time 10 min) was 1.016 and 0.9993 and 0.9928 and 0.996. For the same molecule, the “normalized emission ratio of control biosensor expressed in E. coli” value ([4]; time 15 min) was 1.012 and 0.9858 and 0.9895 and 0.9948, the “normalized emission ratio of control biosensor expressed in E. coli” value ([4]; time 20 min) was 1.006 and 0.9892 and 0.9883 and 1.004 and the “normalized emission ratio of control biosensor expressed in E. coli” value ([4]; time 25 min) was 1.005 and 0.9958 and 0.9871 and 1.006. For the same molecule, the “normalized emission ratio of control biosensor expressed in E. coli” value ([4]; time 30 min) was 1.009 and 0.9836 and 0.9873 and 0.9978, the “normalized emission ratio of control biosensor expressed in E. coli” value ([4]; time 35 min) was 1.002 (2×) and 0.988 and 0.9805 and the “normalized emission ratio of control biosensor expressed in E. coli” value ([4]; time 40 min) was 1.005 and 0.9884 and 0.9838 and 1.008. For the same molecule, the “normalized emission ratio of control biosensor expressed in E. coli” value ([4]; time 45 min) was 1.011 and 0.9924 and 0.993 and 1.004, the “normalized emission ratio of control biosensor expressed in E. coli” value ([4]; time 50 min) was 0.997 and 0.991 and 0.9858 and 1.009 and the “normalized emission ratio of control biosensor expressed in E. coli” value ([4]; time 55 min) was 1.0056 and 0.9921 and 0.9909 and 1.012. The “normalized emission ratio of control biosensor expressed in E. coli” value ([4]; time 60 min) was 1.003 and 0.9967 and 0.9937 and 1.007, the “normalized emission ratio of control biosensor expressed in E. coli” value ([4]; time 65 min) was 0.9962 (2×) and 0.991 and 1.017 and the “normalized emission ratio of control biosensor expressed in E. coli” value ([4]; time 70 min) was 1.013 and 1.001 and 0.9947 and 1.016. For the same molecule, the “normalized emission ratio of control biosensor expressed in E. coli” value ([4]; time 75 min) was 1.004 and 0.9948 and 0.9987 and 1.025, the “normalized emission ratio of control biosensor expressed in E. coli” value ([4]; time 80 min) was 1.011 and 1.0052 and 1.01 and 1.025 and the “normalized emission ratio of control biosensor expressed in E. coli” value ([4]; time 85 min) was 1.015 and 0.9941 and 1.005 and 1.023. For the same molecule, the “normalized emission ratio of control biosensor expressed in E. coli” value ([4]; time 90 min) was 1.028 and 1.011 and 1.01 and 1.022 and the Emission ratio (LHGFR0N7C) was 2.5923 and 2.613 and 2.627.
